Molecules are shown by their SMILES.

The values below come from US20110224197A1, “PYRIMIDINES AND PYRIDINES USEFUL AS INHIBITORS OF PROTEIN KINASES” (Vertex Pharmaceuticals Incorporated, priority 2008, published 2011).

One test relates to spinal cord injury model. Briefly: Spinal Cord Injury Model. As to conditions: in vivo. How it is done:
Compound I-37 was tested in a spinal cord injury model similar to the one described in Dill, et al, (2008) “Inactivation of Glycogen Synthase Kinase 3 Promotes Axonal Growth and Recover in CNS” The Journal of Neuroscience, 28(36): 8914-8928.

The test system of test [1] is E16 rat hippocampal or cortical neurons. As to the kind of experiment: Axonal Branching Assay. Format: cell-based. How it is done: Compounds are tested for the ability to enhance axonal branching in E16 rat hippocampal or cortical neurons.
1 mg/ml stock of PDL is diluted into 100 μg/ml in DI water. The glass coverslips are coated for at least 1 hour at 37° C. prior to doing the dissection. PDL is aspirated and the plates are rinsed with PBS and air-dried in hood.
Cortical or hippocampal lobes are combined with 9 mL of Base media (Neurobasal+Pen/Strep) and put on ice. 1 mL of 10× trypsin solution is added and the mixture is swirled gently. The tissue is then digested via incubation in a 37° C. waterbath for 20 minutes. After 20 minutes, 10 μl/ml DNase (100 μL DNase) is added and the mixture is incubated for another 5 minutes.
The cells are spun at 1000 rpm for 1 minute. The enzyme solution is then removed without removing any of the brain fragments sitting on the bottom. […] The cells are counted in a hemacytometer and seeded at 5000-10000 cells/well in a 24 well plate with glass coverslip inserts coated with PDL. […]
Images are captured at 10× and 20× on an upright microscope and axonal branching is determined by quantification of area under threshold fluorescence of neurofilament Alexa 488 per cell. Dendritic branching is determined by quantification of area under threshold fluorescence of MAP2 Alexa 568 per cell. Alternatively, branching can be determined by manual counting of branch points per cell. […]

Turning to `Cc1nc(-c2ccccc2Cl)nc(Nc2n[nH]c3ncc(F)cc23)c1C` [Compound I-37, N-(2-(2-chlorophenyl)-5,6-dimethylpyrhnidin-4-yl)-5-fluoro-1H-pyrazolo[3,4-b]pyridin-3-amine], in the test on spinal cord injury model, the functional recovery entry was “did not appear to improve functional recovery”. In addition, the “axonal and dendritic branching” value in test [1] (10 nM, 7 days) was “increased axonal and dentritic branching”. Moreover, the axon growth result in test [1] (concentrations shown to induce β-catenin) was “axon growth was inhibited”.
